According to patent publication US8309554B2 (priority 2008, dated 2012):
Values joined by “and” are separate entries in the source; they are usually repeats but may differ in a detail not shown here. Equal entries are not always repeated. Where two headings read alike, the source gives them in different places.

Key:
H460 = experiment: cells; type: cell-based; conditions: for IC50: Homo sapiens
H460 spheroid = experiment: cells; type: cell-based; conditions: Homo sapiens
[1] = test system: H460 non small cell lung xenograft; conditions: mouse, in vivo
in vivo = conditions: mouse, ip
HT29 = experiment: cells; type: cell-based; conditions: for IC50: Homo sapiens, HT-29, 2 h
[2] = NCI-H460, read-out: 2 h Air H460 monolayer IC50
[3] = NCI-H460, read-out: 2 h N2 H460 monolayer IC50
[4] = NCI-H460, read-out: 2 h Air H460 spheroid IC50
[5] = NCI-H460, read-out: 2 h N2 H460 spheroid IC50
[6] = NCI-H460, 2 h, read-out: 2 hr Air H460 IC50
[7] = NCI-H460, 2 h, read-out: 2 hr N2 H460 IC50

| SMILES | IC50 (H460; [2]) [µM] | IC50 (H460; [3]) [µM] | IC50 (H460 spheroid; [4]) [µM] | IC50 (H460 spheroid; [5]) [µM] | tumor growth delay to 500 mm^3 [1] | MTD (in vivo) [mg/kg] | HT29 HCR: Air/N2 (HT29) | IC50 (HT29; read-out: 2 hr Air HT29 IC50) [µM] | IC50 (HT29; read-out: 2 hr N2 HT29 IC50) [µM] | H460 HCR: Air/N2 (H460) | IC50 (H460; [6]) [µM] | IC50 (H460; [7]) [µM] |
| --- | --- | --- | --- | --- | --- | --- | --- | --- | --- | --- | --- | --- |
| CN(c1ccc(N(CCCl)CCCl)cc1)S(=O)(=O)Cn1ccnc1[N+](=O)[O-] [TH-1107] | 113 | 7.9 | < 0.69 | < 0.69 | – | – | – | – | – | – | – | – |
| Cc1cc(OS(=O)(=O)C(C)c2ccsc2[N+](=O)[O-])ccc1N(CCCl)CCCl (centres unmarked) [TH-1120] | 2.4 | 0.3 | < 0.08 | < 0.08 | – | – | – | – | – | – | – | – |
| CN(c1ccc(N(CCCl)CCCl)cc1)S(=O)(=O)C(C)(C)c1cnc([N+](=O)[O-])n1C [TH-1126] | 45 | 7.1 | < 0.69 | < 0.69 | – | – | – | – | – | – | – | – |
| CC(n1ccnc1[N+](=O)[O-])S(=O)(=O)N(C)c1ccc(N(CCCl)CCCl)cc1 (centres unmarked) [TH-1127] | 37 | 3.9 | < 0.69 | < 0.69 | – | – | – | – | – | – | – | – |
| CS(=O)(=O)CCC(c1ccsc1[N+](=O)[O-])S(=O)(=O)Oc1ccc(N(CCCl)CCCl)cc1 (centres unmarked) [TH-1266, 3-(4-(N,N-bis-(2-Chloroethyl)amino)phenoxysulfonyl-(2-methylsulfonyl)ethyl)methyl-2-nitrothiophene] | – | – | – | – | 25 days and 21 days | 40 | >29 | > 1000 | 34 | 183 | 55 | 0.3 |
| O=[N+]([O-])c1sccc1C(Cc1ccc(O)nc1)S(=O)(=O)Oc1ccc(N(CCCl)CCCl)cc1 (centres unmarked) [TH-1305, 3-(4-(N,N-bis-(2-Chloroethyl)amino)phenoxysulfonyl-(2-hydroxypyridin-5-yl-methyl))methyl-2-nitrothiophene] | – | – | – | – | 10 days | 20 | >44 | > 300 | 6.8 | 67 | 47 | 0.7 |
| O=[N+]([O-])c1sccc1C(Cc1cccnc1)S(=O)(=O)Oc1ccc(N(CCCl)CCCl)cc1 (centres unmarked) [TH-1331, 3-(4-(N,N-bis-(2-Chloroethyl)amino)phenoxysulfonyl-(pyridin-3-yl-methyl))methyl-2-nitrothiophene] | – | – | – | – | 11 days and 10 days | 60 | 15 | 166 | 11 | 69 | 103 | 1.5 |
| O=C(CO)Nc1ccc(CC(c2ccsc2[N+](=O)[O-])S(=O)(=O)Oc2ccc(N(CCCl)CCCl)cc2)cn1 (centres unmarked) [TH-1354, 3-(4-(N,N-bis-(2-Chloroethyl)amino)phenoxysulfonyl-(2-(hydroxyacetylamino)pyridin-5-yl-methyl))methyl-2-nitrothiophene] | – | – | – | – | 15 days and 12 days | 40 | 33 | 660 | 20 | 65 | 156 | 2.4 |
| Cn1cncc1CC(c1ccsc1[N+](=O)[O-])S(=O)(=O)Oc1ccc(N(CCCl)CCCl)cc1 (centres unmarked) [TH-1365] | – | – | – | – | 10 days | 10 | 25 | 270 | 11 | 33 | 23 | 0.7 |
| O=C(CO)Nc1ccc(CC(c2ccsc2[N+](=O)[O-])S(=O)(=O)Oc2ccc(N(CCCl)CCCl)cc2)cc1 (centres unmarked) [TH-1400] | – | – | – | – | – | – | 2.1 | 170 | 80 | 54.3 | 76 | 1.4 |
| Nc1cccc(OS(=O)(=O)CCC(c2ccsc2[N+](=O)[O-])S(=O)(=O)Oc2ccc(N(CCCl)CCCl)cc2)c1 (centres unmarked) [TH-1402] | – | – | – | – | – | – | – | > 1000 | > 1000 | 93.3 | 140 | 1.5 |
| O=C(CO)Nc1cccc(OS(=O)(=O)CCC(c2ccsc2[N+](=O)[O-])S(=O)(=O)Oc2ccc(N(CCCl)CCCl)cc2)c1 (centres unmarked) [TH-1414] | – | – | – | – | – | – | 7 | 740 | 100 | 54 | 135 | 2.5 |
| O=[N+]([O-])c1sccc1C(Cc1nccs1)S(=O)(=O)Oc1ccc(N(CCCl)CCCl)cc1 (centres unmarked) [TH-1419] | – | – | – | – | – | – | – | > 300 | > 300 | 45 | 36 | 0.8 |
| O=[N+]([O-])c1sccc1C(Cc1cnc(OCCO)c(Cl)c1)S(=O)(=O)Oc1ccc(N(CCCl)CCCl)cc1 (centres unmarked) [TH-1420] | – | – | – | – | – | – | – | > 300 | > 300 | 62 | 80 | 1.3 |
